What all share (assay type): cell-based
In assay [1] the test system is Escherichia coli (gram-negative). Kind of assay: Antibacterial activity of plasma-coated material (OECD guideline, ISO 22197/20743), gram-negative. As to conditions: E. coli.
The subject of assay [2] is Staphylococcus aureus (gram-positive). Briefly: Antibacterial activity of plasma-coated material (OECD guideline, ISO 22197/20743), gram-positive. As to conditions: S. aureus.
The test system of the next assay is Bacteriophage MS2. Kind of assay: Viral load reduction test (ASTM E2721-16, MS2 in place of Influenza A) on plasma-coated substrate.
Where [3] appears, read: PPNW substrate (polypropylene nonwoven, 25 g/m^2).
Where [4] appears, read: synthetic textile substrate (Tyvek).
Where [5] appears, read: plasma coating from precursor on Tyvek substrate, MS2 phages, vs untreated control, LOD = limit of detection.

Read-outs that look alike come from different tables or passages of the source.

`C=C(C)C(=O)OCCN(C)C` [DIMAEMA, 2-(N,N-dimethylamino)ethyl methacrylate]: in assay [1] (setting [3]), the “% Gram-bacteria reduced” value is recorded as more than 99.9996% and the Gram-log reduction is recorded as more than 5.4 log. For the same compound, in assay [1] (setting [4]), the “% Gram-bacteria reduced” value is on record as 20.6% and the Gram-log reduction is 0.1 log. In assay [2] (setting [3]), the “%Gram+ bacteria reduced” value is given as more than 99.994% and the “Gram+ log reduction” value was more than 4.2 log. Besides, in assay [2] (setting [4]), the “%Gram+ bacteria reduced” value was more than 99.95% and the “Gram+ log reduction” value is reported as more than 3.3 log.
`CCCCCCCCCCCCCCCCCC[N+](C)(C)CCC[Si](OC)(OC)OC.[Cl-]` [SiQAM, Dimethyloctadecyl[3-(trimethoxysilyl)propyl] ammonium chloride solution]: in the assay with Bacteriophage MS2 (setting [5]), the “LOG Reduction” value turned out to be 1.56 log. For the same compound, in assay [1] (setting [3]), the “% Gram-bacteria reduced” value was more than 99.9996% and the Gram-log reduction is more than 5.4 log. Besides, in assay [1] (setting [4]), the “% Gram-bacteria reduced” value is more than 98.7% and the Gram-log reduction was more than 1.9 log. Moreover, in assay [2] (setting [3]), the “%Gram+ bacteria reduced” value was more than 99.994% and the “Gram+ log reduction” value was more than 4.2 log. In assay [2] (setting [4]), the “%Gram+ bacteria reduced” value is listed as more than 99.95% and the “Gram+ log reduction” value is more than 3.3 log.
As to `O=C(O)CC(O)(CC(=O)O)C(=O)O` [Citric acid], the “LOG Reduction” value in the assay on Bacteriophage MS2 (setting [5]) is listed as > 5.0 (LOD) log. Besides, in assay [1] (setting [3]), the “% Gram-bacteria reduced” value is recorded as more than 99.999% and the Gram-log reduction was more than 5.0 log. Further, in assay [1] (setting [4]), the “% Gram-bacteria reduced” value is on record as 97.5% and the Gram-log reduction amounted to 1.6 log. For the same compound, in assay [2] (setting [3]), the “%Gram+ bacteria reduced” value was more than 99.995% and the “Gram+ log reduction” value is on record as more than 4.3 log. Moreover, in assay [2] (setting [4]), the “%Gram+ bacteria reduced” value was more than 99.98% and the “Gram+ log reduction” value is listed as more than 3.8 log.
For the compound `C=CC(=O)NCCC[N+](C)(C)C.[Cl-]` [APTAC, (3-Acrylamidopropyl)trimethylammonium chloride], the “LOG Reduction” value in the assay on Bacteriophage MS2 (setting [5]) is 2.1 log.
For the compound “Benzalkonium chloride [reference compound]”, in the assay with Bacteriophage MS2, the “LOG Reduction” value is on record as > 3.8 (LOD) log. Further, the Gram-log reduction in assay [1] (setting [3]) is 5.4 log; in assay [1] (setting [4]), 1.9 log. Also, the “%Gram+ bacteria reduced” value in assay [2] (setting [3]) was more than 99.994%; in assay [2] (setting [4]) it was more than 99.5%. The figures for the “Gram+ log reduction” value in assay [2] (setting [3]) and in assay [2] (setting [4]) were more than 4.2 log and more than 3.3 log, respectively.

The values above are taken from US20230201870A1, “PLASMA COATING METHOD AND APPARATUS FOR BIOLOGICAL SURFACE MODIFICATION” (MOLECULAR PLASMA GROUP S.A., priority 2020, published 2023).
